Reference: patent publication US9604983B2, “Herbicidal 3-(2-benzyloxyphenyl)-2,4-dihydroxy-1,8-naphthyridine derivatives” (SYNGENTA LIMITED, priority 2013, dated 2017)

What was measured:
Test in all cases: Post-emergence efficacy, glasshouse pot test
Assay type in all cases: in vivo
Details in all cases: post-emergence application at 1000 g/ha; evaluated after 13 days; five point scale
[1] = test system: Solanum nigrum (SOLNI)
Description: (§1) B1 Post-emergence Efficacy Seeds of a variety of test species are sown in standard soil in pots:—Solanum nigrum (SOLNI), Amaranthus retoflexus (AMARE), Setaria faberi (SETFA), Alopecurus myosuroides (ALOMY), Echinochloa crus-galli (ECHCG), Ipomoea hederacea (IPOHE). After 8 days cultivation (post-emergence) under controlled conditions in a glasshouse (at 24/16° C., day/night; 14 hours light; 65% humidity), the plants are sprayed with an aqueous spray solution derived from the formulation of the technical active ingredient in acetone/water (50:50) solution containing 0.5% Tween 20 (polyoxyethelyene sorbitan monolaurate, CAS RN 9005-64-5). Compounds are applied at 1000 g/ha. The test plants are then grown in a glasshouse under controlled conditions in a glasshouse (at 24/16° C., day/night; 14 hours light; 65% humidity) and watered twice daily. After 13 days, the test is evaluated for the percentage damage caused to the plant. The biological activities are shown below in Table 13, on a five point scale (5=80-100%; 4=60-79%; 3=40-59%; 2=20-39%; 1=0-19%).

[2] = test system: Alopecurus myosuroides (ALOMY)
Description: as §1

[3] = test system: Setaria faberi (SETFA)
Description: as §1

[4] = test system: Ipomoea hederacea (IPOHE)
Description: as §1

[5] = test system: Echinochloa crus-galli (ECHCG)
Description: as §1

[6] = test system: Amaranthus retoflexus (AMARE)
Description: as §1

| SMILES | percentage damage caused to the plant, SOLNI [1] | percentage damage caused to the plant, ALOMY [2] | percentage damage caused to the plant, SETFA [3] | percentage damage caused to the plant, IPOHE [4] | percentage damage caused to the plant, ECHCG [5] | percentage damage caused to the plant, AMARE [6] |
| --- | --- | --- | --- | --- | --- | --- |
| C#CCn1c(=O)c(-c2c(Cl)ccc(Cl)c2OCc2ccccc2)c(OC(=O)C(C)C)c2cccnc21 [Compound 1.001, [3-(2-Benzyloxy-3,6-dichloro-phenyl)-2-oxo-1-prop-2-ynyl-1,8-naph-thyridin-4-yl]2-methylpropanoate] | 5 (5=80-100%) | 2 (2=20-39%) | 4 (4=60-79%) | 5 (5=80-100%) | 4 (4=60-79%) | 5 (5=80-100%) |
| C#CCn1c(=O)c(-c2c(Cl)ccc(Cl)c2OCc2ccc(Cl)cc2)c(OC(=O)C(C)C)c2cccnc21 [Compound 1.003] | 5 (5=80-100%) | 1 (1=0-19%) | 3 (3=40-59%) | 5 (5=80-100%) | 4 (4=60-79%) | 5 (5=80-100%) |
| C#CCn1c(=O)c(-c2c(Cl)ccc(Cl)c2OCc2ccc(C)cc2)c(OC(=O)C(C)C)c2cccnc21 [Compound 1.004] | 5 (5=80-100%) | 1 (1=0-19%) | 1 (1=0-19%) | 3 (3=40-59%) | 3 (3=40-59%) | 5 (5=80-100%) |
| C#CCn1c(=O)c(-c2c(Cl)ccc(Cl)c2OCc2ccccc2)c(OC(=O)C(C)C)c2c(OC)ccnc21 [Compound 1.007] | 4 (4=60-79%) | 1 (1=0-19%) | 1 (1=0-19%) | 1 (1=0-19%) | 1 (1=0-19%) | 4 (4=60-79%) |
| C#CCn1c(=O)c(-c2c(Cl)ccc(Cl)c2OCc2ccccc2)c(OC(=O)C(C)C)c2nccnc21 [Compound 1.008] | 5 (5=80-100%) | 5 (5=80-100%) | 5 (5=80-100%) | 5 (5=80-100%) | 5 (5=80-100%) | 5 (5=80-100%) |
| C#CCn1c(=O)c(-c2c(Cl)ccc(Cl)c2OCc2ccccc2)c(O)c2cccnc21 [Compound 2.001, 3-(2-Benzyloxy-3,6-dichloro-phenyl)-4-hydroxy-1-prop-2-ynyl-1,8-naphthyridin-2-one] | 5 (5=80-100%) | 5 (5=80-100%) | 5 (5=80-100%) | 5 (5=80-100%) | 5 (5=80-100%) | 5 (5=80-100%) |
| C#CCn1c(=O)c(-c2c(Cl)ccc(Cl)c2OCc2ccc(OC)cc2)c(O)c2cccnc21 [Compound 2.002] | 5 (5=80-100%) | 5 (5=80-100%) | 5 (5=80-100%) | 5 (5=80-100%) | 5 (5=80-100%) | 4 (4=60-79%) |
| C#CCn1c(=O)c(-c2c(Cl)ccc(Cl)c2OCc2ccc(Cl)cc2)c(O)c2cccnc21 [Compound 2.003] | 5 (5=80-100%) | 3 (3=40-59%) | 4 (4=60-79%) | 5 (5=80-100%) | 5 (5=80-100%) | 5 (5=80-100%) |
| C#CCn1c(=O)c(-c2c(Cl)ccc(Cl)c2OCc2ccc(C)cc2)c(O)c2cccnc21 [Compound 2.004] | 5 (5=80-100%) | 4 (4=60-79%) | 4 (4=60-79%) | 5 (5=80-100%) | 4 (4=60-79%) | 5 (5=80-100%) |
| C#CCn1c(=O)c(-c2c(Cl)ccc(Cl)c2OCc2ccc(C(F)(F)F)cc2)c(O)c2cccnc21 [Compound 2.006] | 5 (5=80-100%) | 4 (4=60-79%) | 5 (5=80-100%) | 5 (5=80-100%) | 5 (5=80-100%) | 5 (5=80-100%) |
| C#CCn1c(=O)c(-c2c(Cl)ccc(Cl)c2OCc2ccccc2)c(O)c2nccnc21 [Compound 2.008] | 5 (5=80-100%) | 5 (5=80-100%) | 5 (5=80-100%) | 5 (5=80-100%) | 5 (5=80-100%) | 5 (5=80-100%) |
| CC(C)C(=O)Oc1c(-c2c(Cl)ccc(Cl)c2OCc2ccccc2)c(=O)n(CC(F)F)c2ncccc12 [Compound 3.001] | 5 (5=80-100%) | 2 (2=20-39%) | 1 (1=0-19%) | 5 (5=80-100%) | 2 (2=20-39%) | 5 (5=80-100%) |
| CC(C)C(=O)Oc1c(-c2c(Cl)ccc(Cl)c2OCc2ccc(Cl)cc2)c(=O)n(CC(F)F)c2ncccc12 [Compound 3.003] | 5 (5=80-100%) | 1 (1=0-19%) | 1 (1=0-19%) | 5 (5=80-100%) | 1 (1=0-19%) | 5 (5=80-100%) |
| Cc1ccc(COc2c(Cl)ccc(Cl)c2-c2c(OC(=O)C(C)C)c3cccnc3n(CC(F)F)c2=O)cc1 [Compound 3.004] | 5 (5=80-100%) | 1 (1=0-19%) | 1 (1=0-19%) | 5 (5=80-100%) | 1 (1=0-19%) | 4 (4=60-79%) |
| CC(C)C(=O)Oc1c(-c2c(Cl)ccc(Cl)c2OCc2ccc(C(F)(F)F)cc2)c(=O)n(CC(F)F)c2ncccc12 [Compound 3.006] | 5 (5=80-100%) | 1 (1=0-19%) | 1 (1=0-19%) | 5 (5=80-100%) | 1 (1=0-19%) | 5 (5=80-100%) |
| COc1ccnc2c1c(OC(=O)C(C)C)c(-c1c(Cl)ccc(Cl)c1OCc1ccccc1)c(=O)n2CC(F)F [Compound 3.007] | 2 (2=20-39%) | 1 (1=0-19%) | 1 (1=0-19%) | 2 (2=20-39%) | 1 (1=0-19%) | 4 (4=60-79%) |
| CC(C)C(=O)Oc1c(-c2c(Cl)ccc(Cl)c2OCc2ccccc2)c(=O)n(CC(F)F)c2nccnc12 [Compound 3.008] | 5 (5=80-100%) | 4 (4=60-79%) | 5 (5=80-100%) | 5 (5=80-100%) | 5 (5=80-100%) | 5 (5=80-100%) |
| O=c1c(-c2c(Cl)ccc(Cl)c2OCc2ccccc2)c(O)c2cccnc2n1CC(F)F [Compound 4.001] | 5 (5=80-100%) | 4 (4=60-79%) | 1 (1=0-19%) | 5 (5=80-100%) | 4 (4=60-79%) | 5 (5=80-100%) |
| O=c1c(-c2c(Cl)ccc(Cl)c2OCc2ccc(Cl)cc2)c(O)c2cccnc2n1CC(F)F [Compound 4.003] | 5 (5=80-100%) | 1 (1=0-19%) | 1 (1=0-19%) | 5 (5=80-100%) | 2 (2=20-39%) | 5 (5=80-100%) |
| Cc1ccc(COc2c(Cl)ccc(Cl)c2-c2c(O)c3cccnc3n(CC(F)F)c2=O)cc1 [Compound 4.004] | 5 (5=80-100%) | 2 (2=20-39%) | 1 (1=0-19%) | 5 (5=80-100%) | 2 (2=20-39%) | 5 (5=80-100%) |
